Test [1] has as its target T1, BLM-RAD54 interaction (BLM F2 and N-RAD54 F1) (Homo sapiens, UniProt Q92698).
T1 construct: expressed in transfected cells; host or cells: HEK293T
T1 sequence (Q92698 1-212): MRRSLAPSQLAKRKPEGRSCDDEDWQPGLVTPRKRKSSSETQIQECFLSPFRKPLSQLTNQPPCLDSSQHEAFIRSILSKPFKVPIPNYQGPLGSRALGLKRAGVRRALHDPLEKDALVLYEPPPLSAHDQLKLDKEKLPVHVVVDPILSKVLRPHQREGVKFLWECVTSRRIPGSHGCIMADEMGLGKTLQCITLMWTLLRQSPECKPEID
Nature of the test: Renilla luciferase-based protein complementation assay (PCA). The class given is cell-based. The conditions noted are these: disruption of BLM F2 / N-RAD54 F1 interaction, HEK293T cells, 1 nM to 100 μM; read-out: EC50. The protocol: Specifically, N-RAD54-F1, C-RAD54-F1, BLM-F1 and BLM-F2 were transfected in HEK293T. Forty-eight hours post-transfection, Renilla luciferase-based PCA were carried out with the indicated combination of the expressed proteins. The experiment was repeated three times. Mean±S.D.
Using the Renilla luciferase-based protein complementation assay described earlier, 1280 FDA/EMA approved small molecules present in Prestwick chemical library were screened for their ability to disrupt BLM-RAD54 interaction. Each of the small molecules was incubated with HEK293T cells expressing BLM-F2 and N-RAD54-F1. Compared to cells expressing only BLM-F2 and N-RAD54-F1, the decrease in Renilla luciferase intensity in presence of each small molecule was monitored. Percentage disruption of the interaction between BLM F2 and N-RAD54 F1 was plotted in form of heatmap. The disruption of the BLM-RAD54 interaction was determined by a decrease in the Renilla luciferase activity as compared to control untreated cells.
The percentage disruption of the interaction between BLM F2 and N-RAD54 F1 was plotted as a non-linear regression line. The data was from three independent experiments.
Renilla Luciferase (Rlu) based Protein complementation assay was carried out as described in (Stefan et al., 2007). For preliminary screening of the Prestwick Chemical Library (containing 1280 FDA/EMA approved small molecules), HEK293T cells were seeded in the 6-well plates a day prior to the transfection. Next day the cells were transfected by 2 μg each of pcDNA3.1 N-RAD54 F1, pcDNA3.1 C-RAD54 F1, pcDNA3.1 BLM F1, pcDNA3.1 BLM F2 plasmids (alone or in different combinations) using Lipofectamine 2000 (according to the manufacturer's protocol). 36 hours post-transfection, approximately […] cells were seeded in a 96-well plate and incubated at 37° C. for 2 hour with or without 10 μM of the 1280 small molecules present in the library. 10 μM of Coenleterazine h was added into each well and Rluc activity was monitored for the first 10 seconds in Varioskan Microplate Reader (Thermo Fisher Scientific). The validation screen was performed with 17 small molecules at 100 μM, 10 μM, 1 μM, 100 nM, 10 nM and 1 nM concentrations. The percentage reduction in the protein-protein interaction was then calculated as compared to the control wells (without any small molecule).

Test [2] concerns the target T2, RAD54 chromatin remodeling activity (Homo sapiens, UniProt Q92698).
T2 construct: GST RAD54 (1-747) (WT), GST BLM (1-1417) (WT), His RAD54 (1-747) (WT); made in house; host or cells: E. coli BL-21 DE3
T2 sequence (Q92698 1-747): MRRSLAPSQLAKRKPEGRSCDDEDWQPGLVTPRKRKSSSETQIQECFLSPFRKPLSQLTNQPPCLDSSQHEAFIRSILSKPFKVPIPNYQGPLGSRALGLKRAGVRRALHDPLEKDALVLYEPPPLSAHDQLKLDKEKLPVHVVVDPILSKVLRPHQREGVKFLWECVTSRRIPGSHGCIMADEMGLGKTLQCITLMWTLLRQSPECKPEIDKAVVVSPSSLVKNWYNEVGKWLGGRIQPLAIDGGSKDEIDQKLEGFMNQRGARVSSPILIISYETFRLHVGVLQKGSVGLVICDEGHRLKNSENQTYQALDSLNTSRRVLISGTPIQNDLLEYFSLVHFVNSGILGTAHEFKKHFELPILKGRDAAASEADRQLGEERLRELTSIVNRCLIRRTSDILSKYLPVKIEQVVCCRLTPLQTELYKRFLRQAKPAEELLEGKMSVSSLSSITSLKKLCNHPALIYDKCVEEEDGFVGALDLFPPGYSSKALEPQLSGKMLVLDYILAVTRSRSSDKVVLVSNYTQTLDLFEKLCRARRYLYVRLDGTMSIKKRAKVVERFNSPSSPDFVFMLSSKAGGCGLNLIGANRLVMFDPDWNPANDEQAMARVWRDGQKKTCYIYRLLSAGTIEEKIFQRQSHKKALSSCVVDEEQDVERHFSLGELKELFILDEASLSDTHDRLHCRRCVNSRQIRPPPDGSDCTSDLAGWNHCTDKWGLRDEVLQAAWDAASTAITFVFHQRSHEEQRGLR
The test can be described thus: Restriction enzyme accessibility (REA) assay on chromatinized G5E4 array. In kind it is biochemical. The conditions noted are these: 180 nM peptide, +ATP.
Description: (§1) The data is from three independent experiments.
as §1

A further test deals with T3, RAD54 (Homo sapiens, UniProt Q92698).
T3 construct: GST RAD54 (1-747) (WT); made in house; host or cells: E. coli BL-21 DE3
T3 sequence (Q92698 1-747): T2 sequence (Q92698 1-747)
The test can be described thus: ATP binding assay. The class given is biochemical. The following applies: 180 nM peptide. The protocol: The quantitation of the ATP binding assay was carried out using RAD54 WT, RAD54 WT+BLM_peptide, and RAD54 WT+SCM_peptide. The data is from three independent experiments. Mean±S.D.
(§2) The presence of the disruptors also led to a decrease in the ATP binding to RAD54.
A 20 μl reaction was set up with 120 nM of GST-RAD54 and 180 nM of either BLM_peptide or SCM_peptide or BLM (1-212) using 4 μl of 5×ATP binding assay buffer (100 mM Tris-Cl pH 7.5, 50 mM MgCl2, 10 mM MnCl2, 5 mM DTT) and 5 μCi of [γ^32P]dATP. […] Reactions were incubated at 30° C. for 20 minutes and were stopped with 10% TCA and samples were spotted on P81 phosphocellulose paper followed by washing of paper strips with 75 mM orthophosphoric acid. A minimum of 8 washes were given in 20 hrs of 1 hr each including a 12 hr wash. Following this, strips were dehydrated in ethanol for 10 min followed by liquid scintillation counting. Reactions without the substrate were spotted as control and the same process repeated.

The next test has as its target T4, His-RAD54 WT (Homo sapiens, UniProt Q92698).
T4 construct: made in house; host or cells: E. coli BL-21 DE3
T4 sequence (Q92698 1-747): T2 sequence (Q92698 1-747)
The test can be described thus: Tryptophan fluorescence assay. The class given is binding. The conditions noted are these: increasing amount of peptide. Here is the method:
To determine how BLM peptide affects ATP binding and hydrolysis, tryptophan fluorescence assays were carried out using full-length recombinant RAD54 in presence of either BLM_peptide or SCM_peptide (FIG. 2H). Tryptophan fluorescence assays were carried out with RAD54 WT alone or RAD54 WT in presence of the indicated concentrations of either BLM_peptide (upper panel) or SCM_peptide (lower panel). The experiment was repeated three times and one representative experiment has been shown.
RAD54 fluorescence was measured in a fluorometer.
Tryptophan fluorescence measurements were performed on a Fluoromax Spectrofluorimeter (Horiba-Jobin Yvon Fluoromax 4). Recombinant His-RAD54 (500 nM) was excited at 280 nm and the emission intensity monitored at regular intervals from 295 nm to at least 450 nm.

Another test has as its target T5, RAD54 ATPase activity (Homo sapiens, UniProt Q92698).
T5 construct: made in house; host or cells: E. coli BL-21 DE3
T5 sequence (Q92698 1-747): T2 sequence (Q92698 1-747)
Nature of the test: ATPase assay. The class given is biochemical. The conditions noted are these: peptide gradient 180 nM, 360 nM, 540 nM. The protocol:
The data is from three independent experiments. Mean±S.D.
as §2
Assay for RAD54 ATPase activity was carried out as per the previously published protocol (Srivastava et al., 2009). His-RAD54 (120 nM) was incubated with the GST-BLM (1-212) or BLM_peptide or SCM_peptide (180 nM). […] 1 μl of the sample was spotted on the polyethyleneimine-coated TLC plate, resolved in 1M Formic Acid and 0.3M LiCl. The products of ATP hydrolysis were then visualized by Phosphoimager scans taken in Typhoon™ laser-scanner platform (Cytiva) and quantitated using the inbuilt software.

Test [3] has as its target T2, RAD54 chromatin remodeling activity. Nature of the test: REA assay on chromatinized MRP2 array. The following applies: 180 nM peptide, +ATP. In kind it is biochemical.
Description: (§3) The data was from three independent experiments.
as §3, §1

A further test has as its system HCT116 IC60 CPTR cells. Nature of the test: MTT assay, CPT gradient with or without disruptor. The following applies: Homo sapiens, HCT-116, CPT gradient alone, 72 hours, read-out: EC50 (μM), HCT116 WT CPT^R. In kind it is cell-based. Here is the method: (§4) The three resistant lines and their wildtype counterpart HCT116 were exposed to a gradient of CPT, CDDP or 1-OHP.
(§5) Concentrations of CPT used: 0.140 nM, 20 nM, 50 nM, 1000 nM. Concentration of 1-OHP: 0.14 μM, 2 μM, 4 μM, 6 μM, 8 μM. Concentrations of CDDP used: 0.140 μM, 2 μM, 5 μM, 10 μM. The percentage of viable cells were determined by MTT assays (FIG. 12A-12C). The data in FIG. 12A and FIG. 12C is from three independent experiments and the data in FIG. 12B is from nine independent experiments. […] The levels of MRP2, MRP3, MRP5, MXR were quantitated from three independent experiments. […] Specifically, HCT116 IC60 CPTR cells were transfected with the HR substrate for 72 hours and the levels of HR was determined (FIG. 6A). The data is from three independent experiments. […] The number of soft agar colonies in each condition were counted. The data is from three independent experiments.
To generate camptothecin and cisplatin resistant cells (named as HCT116 IC60 CPT^R, HCT116 IC60 CDDP^R respectively), HCT116 wild type were seeded in a 10 cm dish to a confluency of 80%. The IC20 concentrations of cisplatin (3.38 μM) and camptothecin (12.6 nM) was added for 2 hours and 6 hours, respectively. […] Resistant index was calculated using the following formula: Resistant index=IC60 of the resistant cells/IC60 of the parental cells. […]

The subject of the next test is HCT116 WT cells. The test can be described thus: MTT assay, chemotherapeutic drug gradient with or without disruptor. The class given is cell-based. The protocol:
as §4, §5
To generate camptothecin and cisplatin resistant cells (named as HCT116 IC60 CPT^R, HCT116 IC60 CDDP^R respectively), HCT116 wild type were seeded in a 10 cm dish to a confluency of 80%. The IC20 concentrations of cisplatin (3.38 μM) and camptothecin (12.6 nM) was added for 2 hours and 6 hours, respectively. Post treatment, the cells were washed twice with 1×PBS and fresh media was added. After every 48 hours, the media was changed and IC20 concentration of the drugs were added only if the confluency of cells was at least 80%. […] Resistant index was calculated using the following formula: Resistant index=IC60 of the resistant cells/IC60 of the parental cells.
Cells were seeded in a 96-well plate overnight. Next day, the culturing media was replaced with Optimem media, followed by incubation with BLM_CPP or SCM_CPP for 1 hr. The final concentrations of the peptides were 450 nM for cisplatin (CDDP) and 180 nM (for all other drugs). […] Post treatment, the cells were washed with 1×PBS and fresh media was added. After 72 hours, MTT assay was carried out to determine the percentage cell viability of the cells with respect to the untreated cells.

Where [4] appears, read: HCT116, used to generate resistant cells.

Regarding `Nc1nc2nn[nH]c2c(=O)[nH]1` [C1, Azaguanine-8], the half-maximal effective concentration (EC50) in test [1] came out at 22.3 ± 1.98 nM.

Take `C[C@]12C=CC(=O)C=C1CC[C@@H]1[C@@H]2C(=O)C[C@@]2(C)[C@H]1CC[C@]2(O)C(=O)CO` [C6, Prednisone]: the EC50 in test [1] was found to be 6.26 ± 2 nM.

Consider “BLM_peptide: BLM (181-212) peptide, sequence STAQKSKKGKRNFFKAQLYTTNTVKTDLPPPS”, for which the “chromatin remodeling activity of RAD54, fraction uncut” value in test [2] is listed as “enhance the chromatin remodeling activity of RAD54, to the same extent as BLM (1-212)”. In addition, in the test with RAD54, the “binding of ATP to RAD54” value is “enhanced the binding of ATP to RAD54”. Moreover, the “tryptophan fluorescence of RAD54” value with His-RAD54 WT is “progressively enhanced fluorescence quenching”. Also, in the test with RAD54 ATPase activity, the “ATPase activity of RAD54” value is “increased the ATPase activity of RAD54”. Further, in test [3], the “RAD54 mediated remodeling activity, fraction uncut” value is “enhanced RAD54 mediated remodeling activity on MRP2 substrate”.

In the case of `NC(=O)NC1NC(=O)NC1=O` (centres unmarked) [C2, Allantoin], in test [1], the EC50 is 17.9 ± 1.82 nM.

As to `Cc1ncc([N+](=O)[O-])n1CCO` [C8, Metronidazole], in test [1], the EC50 came out at 20.5 ± 2.61 nM.

As to `CC[C@@]1(O)C(=O)OCc2c1cc1n(c2=O)Cc2cc3ccccc3nc2-1` [CPT, camptothecin], the EC50 with HCT116 IC60 CPTR cells stood at 0.354 ± 0.00561 µM. In the test with HCT116 WT cells (setting [4]), the IC40 concentration amounted to 30.8 nM and the IC60 concentration was found to be 92.6 nM. Besides, the EC50 in the test with HCT116 WT cells (Homo sapiens, HCT-116, CPT gradient alone, MTT, 72 hours, read-out: EC50 (μM), HCT116 WT) amounted to 0.043 ± 0.0037 µM. Further, the IC20 in the test on HCT116 WT cells (Homo sapiens, HCT-116, HCT116 wild type, used to generate resistant cells, read-out: IC20 concentration) amounted to 12.6 nM.

Values taken from patent US20240180881A1, “METHODS FOR DECREASING RESISTANCE TO CHEMOTHERAPY” (National Institute of Immunology, priority 2022, published 2024).
